The text below walks through data of patent US5478828A, “Piperazinyl-and piperidinyl-cyclohexanols” (Bristol-Myers Squibb Company, priority 1995, dated 1995).

One assay deals with T1, D2 receptor (Bos taurus, UniProt P20288).
T1 construct: from tissue
Description: In vitro receptor binding, D2. The following applies: in vitro; read-out: D2 receptor binding IC50.

In a further assay the target is 5-HT1A receptor. Description: In vitro receptor binding, 5-HT1A. On the procedure: In vitro IC50 test values for binding to the 5-HT1A receptor were determined for representative compounds of Formula I by the method of S. J. Peroutka, Brain Research 344, 167 (1985); with only minor modifications. Test IC50 values lower than 100 nM are considered to reflect activity at the 5-HT1A receptor.

In assay [1] the test system is rat social interaction task (anxiety). Description: Rat social interaction task (in vivo model of anxiety). The following applies: given subcutaneously.

T1 sequence (P20288 whole entry): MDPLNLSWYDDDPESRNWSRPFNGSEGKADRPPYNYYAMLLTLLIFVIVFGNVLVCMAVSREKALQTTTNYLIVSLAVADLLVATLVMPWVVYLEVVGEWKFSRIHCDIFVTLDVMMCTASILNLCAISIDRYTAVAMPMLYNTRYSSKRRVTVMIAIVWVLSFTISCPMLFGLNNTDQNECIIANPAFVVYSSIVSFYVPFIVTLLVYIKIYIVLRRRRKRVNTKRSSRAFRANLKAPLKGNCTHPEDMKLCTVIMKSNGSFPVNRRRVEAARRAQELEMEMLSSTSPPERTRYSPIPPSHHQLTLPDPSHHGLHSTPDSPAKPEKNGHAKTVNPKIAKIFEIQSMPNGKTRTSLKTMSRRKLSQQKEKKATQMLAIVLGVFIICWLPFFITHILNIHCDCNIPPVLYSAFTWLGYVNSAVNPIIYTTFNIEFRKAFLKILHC
Description for D2 receptor: In vitro IC50 test values for binding to the D2 receptor were determined for representative compounds of Formula I by the method of Burt, Creese, and Snyder, Molecular Pharmacology 12, 800 (1976); Creese, Burt, and Snyder, Science 196, 326 (1977); and Creese, Burt and Snyder, Science.

In the case of `O=[N+]([O-])c1ccccc1CN1CCN([C@H]2CC[C@](O)(c3ccc4c(c3)OCO4)CC2)CC1` [Example 25, Z-1-(1,3-Benzodioxol-5-yl)-4-[4-[(2,-nitrophenyl)methyl]-1-piperazinyl]cyclohexanol], the IC50 (usually the concentration that gives 50% inhibition) at D2 receptor was 7.08 µM; at 5-HT1A receptor, 0.0128 µM.
In the case of `O[C@]1(c2ccc(F)cc2)CC[C@H](N2CCN(Cc3cc(F)ccc3F)CC2)CC1` [Example 36, Z-1-(4-Fluorophenyl)-4-[4-[(2,5-difluorophenyl)methyl]-1-piperazinyl]cyclohexanol], in assay [1], the “Rat social interaction task, active doses” value was 0.01-10 mpk. The IC50 on 5-HT1A receptor turned out to be 0.0347 µM.
Regarding `COc1cccc(CC2CCN([C@H]3CC[C@](OC)(c4ccc5c(c4)OCO5)CC3)CC2)c1` [Example 44, Z-1-[4-(1,3-Benzodioxol-5-yl)-4-methoxy-1-cyclohexyl]-4-[(3-methoxyphenyl)methyl]-piperidine], the IC50 on D2 receptor was found to be 49.2 µM; on 5-HT1A receptor, 0.0082 µM.
